“And” between values parts separate entries of the source, which are not always exact repeats. Equal entries are not always repeated.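 Step 1: Grow cells in 96-well plates. Step 2: Expose to compound for 48 hours at 5 concentrations. Step 3: Interpolate endpoints linearly; if unreached, use highest concentration. Abbreviation: GI50, concentration required for 50% inhibition of growth.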 The source made the active and inactive calls. Cut-off read from the data, not from the text of the source: active = GI50 up to about 1.1 µM and inactive = higher.
Columns and labels:
Test in all cases: NCI anticancer screen, dose series, 48 h
786-0 = tested on: 786-0
A549 = tested on: A549
BT-549 = tested on: BT-549
CCRF-CEM = tested on: CCRF-CEM
COLO 205 = tested on: COLO 205
Hs-578T = tested on: Hs-578T
LOX IMVI = tested on: LOX IMVI
MDA-N = tested on: MDA-N
MOLT-4 = tested on: MOLT-4
Malme-3M = tested on: Malme-3M
OVCAR-3 = tested on: OVCAR-3
OVCAR-5 = tested on: OVCAR-5
OVCAR-8 = tested on: OVCAR-8
SF-539 = tested on: SF-539
SK-MEL-28 = tested on: SK-MEL-28
U-251 = tested on: U-251
PC-3 = tested on: PC-3
SK-MEL-2 = tested on: SK-MEL-2
SR = tested on: SR
HCC 2998 = tested on: HCC 2998

Row | Compound | GI50 (786-0) | GI50 (A549) | GI50 (BT-549) | GI50 (CCRF-CEM) | GI50 (COLO 205) | GI50 (Hs-578T) | GI50 (LOX IMVI) | GI50 (MDA-N) | GI50 (MOLT-4) | GI50 (Malme-3M) | GI50 (OVCAR-3) | GI50 (OVCAR-5) | GI50 (OVCAR-8) | GI50 (SF-539) | GI50 (SK-MEL-28) | GI50 (U-251) | GI50 (PC-3) | GI50 (SK-MEL-2) | GI50 (SR) | GI50 (HCC 2998)
1 | C=CCN1C(=O)N/C(=C\c2ccc(Cl)cc2)C1=O | > 100 µM (inactive) | 83.9 µM (inactive) | > 100 µM (inactive) | > 100 µM (inactive) | > 100 µM (inactive) | > 100 µM (inactive) | > 100 µM (inactive) | > 100 µM (inactive) | > 100 µM (inactive) | > 100 µM (inactive) | > 100 µM (inactive) | > 100 µM (inactive) | > 100 µM (inactive) | > 100 µM (inactive) | > 100 µM (inactive) | > 100 µM (inactive) |  |  |  | 
2 | O=c1[nH]c(Nc2nc3ccccc3[nH]2)nc(O)c1Cc1ccccc1 | 61.5 µM (inactive) | > 100 µM (inactive) | > 100 µM (inactive) | > 100 µM (inactive) | > 100 µM (inactive) | 56 µM (inactive) |  | > 100 µM (inactive) | > 100 µM (inactive) | > 100 µM (inactive) |  |  | > 100 µM (inactive) | > 100 µM (inactive) | > 100 µM (inactive) | 56.8 µM (inactive) | > 100 µM (inactive) | > 100 µM (inactive) | > 100 µM (inactive) | 
3 | COc1cc(/C=C2\N=C(c3ccccc3)N(c3nc4c(Cl)cc(Cl)cc4s3)C2=O)ccc1O | 35.9 µM (inactive) | 30.8 µM (inactive) | 21.1 µM (inactive) | 13.6 µM (inactive) | 43.4 µM (inactive) | 18.2 µM (inactive) | 20.5 µM (inactive) |  | 0.059 µM (active) |  | 24.2 µM (inactive) | 71 µM (inactive) | 31.8 µM (inactive) | 41.6 µM (inactive) | 52 µM (inactive) | 22.9 µM (inactive) | 19.5 µM (inactive) | 23.4 µM (inactive) | 11.1 µM (inactive) | 19.8 µM (inactive)
4 | C[C@]12CC(c3ccccc3O1)C(C(=O)Nc1nc(C34CC5CC(CC(C5)C3)C4)cs1)C(=O)N2 (stereo partly specified) | > 100 µM (inactive) | > 100 µM (inactive) | > 100 µM (inactive) | 89.1 µM (inactive) | > 100 µM (inactive) | > 100 µM (inactive) | > 100 µM (inactive) |  | > 100 µM (inactive) | 34.7 µM (inactive) | > 100 µM (inactive) | > 100 µM (inactive) | > 100 µM (inactive) |  | > 100 µM (inactive) | > 100 µM (inactive) | > 100 µM (inactive) | > 100 µM (inactive) | > 100 µM (inactive) | > 100 µM (inactive)
5 | C[n+]1c(-c2ccccc2)cc2/c(=C\c3ccc([N+](=O)[O-])cc3)c3ccccc3n21 | 1.52 µM (inactive) | 2.15 µM (inactive) | 0.281 µM (active) | 0.692 µM (active) | 0.532 µM (active) | 1.29 µM (inactive) | 2.63 µM (inactive) | 2.37 µM (inactive) | 0.966 µM (active) |  | 3.06 µM (inactive) | 6.85 µM (inactive) | 1.66 µM (inactive) | 0.615 µM (active) | 7.41 µM (inactive) | 1.43 µM (inactive) | 3.1 µM (inactive) | 3.01 µM (inactive) |  | 11.3 µM (inactive)
6 | CCCCCCCCCCCCCCCCOC[C@H](COC(c1ccccc1)(c1ccccc1)c1ccccc1)O[PH](=S)OC (stereo partly specified) | > 100 µM (inactive) | > 100 µM (inactive) | > 100 µM (inactive) | > 100 µM (inactive) | > 100 µM (inactive) | > 100 µM (inactive) | > 100 µM (inactive) | > 100 µM (inactive) | > 100 µM (inactive) |  | > 100 µM (inactive) | > 100 µM (inactive) | > 100 µM (inactive) | > 100 µM (inactive) |  | > 100 µM (inactive) | > 100 µM (inactive) | > 100 µM (inactive) | > 100 µM (inactive) | 
7 | Fc1ccc(C(OCCN2CCC3CCC(C2)N3C/C=C/c2cccs2)c2ccc(F)cc2)cc1 (stereo unspecified) | 8.49 µM (inactive) | 11 µM (inactive) | 13.2 µM (inactive) | 8.09 µM (inactive) | 1.96 µM (inactive) | 12.1 µM (inactive) | 6.38 µM (inactive) | 10.3 µM (inactive) | 1.21 µM (inactive) | 6.03 µM (inactive) | 10.6 µM (inactive) | 13.1 µM (inactive) | 4.06 µM (inactive) | 10.6 µM (inactive) | 6.47 µM (inactive) | 5.64 µM (inactive) | 5.75 µM (inactive) | 10.7 µM (inactive) |  | 3.21 µM (inactive)
8 | c1ccc(CCN2CCN=C2Cc2ccccc2)cc1 | > 100 µM (inactive) | > 100 µM (inactive) | > 100 µM (inactive) | 37.3 µM (inactive) | > 100 µM (inactive) | > 100 µM (inactive) | > 100 µM (inactive) | > 100 µM (inactive) |  | > 100 µM (inactive) | 71.3 µM (inactive) | > 100 µM (inactive) | > 100 µM (inactive) |  | > 100 µM (inactive) | > 100 µM (inactive) |  | > 100 µM (inactive) | > 100 µM (inactive) | 21.3 µM (inactive)
9 | CC(=O)OCC1OC(n2c(N)c(C#N)c(C)c(C#N)c2=S)C(OC(C)=O)C(OC(C)=O)C1OC(C)=O (stereo unspecified) | > 100 µM (inactive) | > 100 µM (inactive) | > 100 µM (inactive) | > 100 µM (inactive) | > 100 µM (inactive) | > 100 µM (inactive) | > 100 µM (inactive) | > 100 µM (inactive) | > 100 µM (inactive) | > 100 µM (inactive) and 78.5 µM (inactive) | > 100 µM (inactive) | > 100 µM (inactive) | > 100 µM (inactive) | > 100 µM (inactive) | > 100 µM (inactive) | > 100 µM (inactive) | > 100 µM (inactive) | > 100 µM (inactive) |  | > 100 µM (inactive)
10 | C=C1C(=O)O[C@@H]2C[C@@]3(C)CC(=O)C=C(C)[C@@H]3C[C@H]12 | 12.4 µM (inactive) | 29.6 µM (inactive) | 10.8 µM (inactive) | 5.83 µM (inactive) | 3.37 µM (inactive) | 27.2 µM (inactive) | 13.9 µM (inactive) | 3.74 µM (inactive) | 3.04 µM (inactive) | 5.98 µM (inactive) | 6.15 µM (inactive) | 14.7 µM (inactive) | 15 µM (inactive) | 13.3 µM (inactive) | 5.73 µM (inactive) | 15.5 µM (inactive) | 18.2 µM (inactive) | 12.9 µM (inactive) |  | 14.2 µM (inactive)
11 | CCCCC(Sc1cc(Cl)c(C)cc1S(=O)(=O)Nc1nc(N)n[nH]1)C(=O)OC (stereo unspecified) | > 10 µM (inactive) | > 10 µM (inactive) | > 10 µM (inactive) | > 10 µM (inactive) | > 10 µM (inactive) | > 10 µM (inactive) | > 10 µM (inactive) | > 10 µM (inactive) | > 10 µM (inactive) | > 10 µM (inactive) | > 10 µM (inactive) | > 10 µM (inactive) | > 10 µM (inactive) | > 10 µM (inactive) | > 10 µM (inactive) | > 10 µM (inactive) | > 10 µM (inactive) | > 10 µM (inactive) |  | > 10 µM (inactive)
12 | COc1ccc(/C=C2\CCC(CN(C)C)C2=O)cc1OC (stereo unspecified) | 3.34 µM (inactive) | 17.2 µM (inactive) | 5.43 µM (inactive) | 1.32 µM (inactive) | 2.07 µM (inactive) | 4.3 µM (inactive) | 1.91 µM (inactive) |  | 1.29 µM (inactive) | 3.95 µM (inactive) | 7.21 µM (inactive) | 14.8 µM (inactive) | 2.9 µM (inactive) | 10.5 µM (inactive) | 5.48 µM (inactive) | 16.1 µM (inactive) | 7.55 µM (inactive) | 11.5 µM (inactive) | 1.86 µM (inactive) | 5.83 µM (inactive)
13 | O=[N+]([O-])C[C@@]12O[C@]3(O)C4C5CC(C6C5C3C61)C42 (stereo partly specified) | > 100 µM (inactive) | > 100 µM (inactive) | > 100 µM (inactive) | > 100 µM (inactive) | > 100 µM (inactive) | > 100 µM (inactive) | > 100 µM (inactive) |  | > 100 µM (inactive) | > 100 µM (inactive) | > 100 µM (inactive) | > 100 µM (inactive) | > 100 µM (inactive) | > 100 µM (inactive) | > 100 µM (inactive) | > 100 µM (inactive) | > 100 µM (inactive) | > 100 µM (inactive) | 80.2 µM (inactive) | < 0.01 µM (active)
14 | Cc1nc(C(N)=S)sc1/C(CC(=O)C(=O)Nc1cccc2ccc(O)cc12)=N\NC(=O)c1ccncc1 | 40.3 µM (inactive) | > 100 µM (inactive) | > 100 µM (inactive) | 33.4 µM (inactive) | 49.2 µM (inactive) | > 100 µM (inactive) | 42.2 µM (inactive) | 63.5 µM (inactive) | 28.2 µM (inactive) |  | 34 µM (inactive) | > 100 µM (inactive) | 49.1 µM (inactive) | 94.2 µM (inactive) | 74.8 µM (inactive) | 68.5 µM (inactive) | 75.9 µM (inactive) | > 100 µM (inactive) |  | 59.8 µM (inactive)
15 | Cc1ccc(C(=O)Nc2ccc(CP(=O)(O)O)cc2)cc1NC(=O)Nc1cc(C(=O)Nc2ccc(CP(=O)(O)O)cc2)ccc1C | > 100 µM (inactive) | > 100 µM (inactive) | > 100 µM (inactive) | > 100 µM (inactive) | > 100 µM (inactive) | > 100 µM (inactive) | > 100 µM (inactive) | > 100 µM (inactive) | > 100 µM (inactive) | > 100 µM (inactive) | > 100 µM (inactive) | > 100 µM (inactive) | > 100 µM (inactive) | > 100 µM (inactive) | > 100 µM (inactive) | > 100 µM (inactive) | > 100 µM (inactive) | > 100 µM (inactive) |  | > 100 µM (inactive)

Source: ChEMBL document CHEMBL1201862, “PubChem BioAssay data set” (2004)
